This passage reports AC50 results from ChEMBL document CHEMBL5291721, “A preclinical secondary pharmacology resource illuminates target-adverse drug reaction associations of marketed drugs” (Nat Commun, 2023).

For experiment [1], the target named is T1, 5-hydroxytryptamine receptor 1A (Homo sapiens, UniProt P08908).
T1 sequence (P08908 whole entry): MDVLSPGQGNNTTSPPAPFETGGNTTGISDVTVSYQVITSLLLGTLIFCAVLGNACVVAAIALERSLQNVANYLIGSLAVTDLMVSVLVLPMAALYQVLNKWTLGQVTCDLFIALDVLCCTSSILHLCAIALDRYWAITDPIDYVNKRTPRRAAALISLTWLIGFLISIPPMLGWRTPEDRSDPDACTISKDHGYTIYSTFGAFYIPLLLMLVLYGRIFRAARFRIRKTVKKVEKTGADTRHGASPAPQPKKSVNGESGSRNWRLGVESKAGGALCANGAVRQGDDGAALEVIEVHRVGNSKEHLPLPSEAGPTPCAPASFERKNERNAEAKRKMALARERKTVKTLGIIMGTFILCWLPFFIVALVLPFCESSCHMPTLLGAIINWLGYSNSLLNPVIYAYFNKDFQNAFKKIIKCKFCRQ
It is filed as functional, cell-based.

The target in experiment [2] is Sodium-dependent dopamine transporter (Homo sapiens, UniProt Q01959).
A further experiment has as its target T2, B2 bradykinin receptor (Homo sapiens, UniProt P30411).
T2 sequence (P30411 whole entry): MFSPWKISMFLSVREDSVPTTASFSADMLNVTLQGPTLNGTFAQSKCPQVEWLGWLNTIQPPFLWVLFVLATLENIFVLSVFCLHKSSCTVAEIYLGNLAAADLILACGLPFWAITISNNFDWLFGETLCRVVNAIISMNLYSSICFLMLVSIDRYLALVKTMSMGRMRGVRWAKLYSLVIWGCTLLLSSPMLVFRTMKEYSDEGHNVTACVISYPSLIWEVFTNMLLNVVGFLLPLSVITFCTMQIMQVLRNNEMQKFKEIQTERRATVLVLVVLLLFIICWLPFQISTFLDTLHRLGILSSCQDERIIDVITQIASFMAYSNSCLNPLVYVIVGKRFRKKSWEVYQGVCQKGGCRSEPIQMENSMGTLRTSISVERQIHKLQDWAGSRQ

For experiment [3], the target named is T3, Muscarinic acetylcholine receptor M2 (Homo sapiens, UniProt P08172).
T3 sequence (P08172 whole entry): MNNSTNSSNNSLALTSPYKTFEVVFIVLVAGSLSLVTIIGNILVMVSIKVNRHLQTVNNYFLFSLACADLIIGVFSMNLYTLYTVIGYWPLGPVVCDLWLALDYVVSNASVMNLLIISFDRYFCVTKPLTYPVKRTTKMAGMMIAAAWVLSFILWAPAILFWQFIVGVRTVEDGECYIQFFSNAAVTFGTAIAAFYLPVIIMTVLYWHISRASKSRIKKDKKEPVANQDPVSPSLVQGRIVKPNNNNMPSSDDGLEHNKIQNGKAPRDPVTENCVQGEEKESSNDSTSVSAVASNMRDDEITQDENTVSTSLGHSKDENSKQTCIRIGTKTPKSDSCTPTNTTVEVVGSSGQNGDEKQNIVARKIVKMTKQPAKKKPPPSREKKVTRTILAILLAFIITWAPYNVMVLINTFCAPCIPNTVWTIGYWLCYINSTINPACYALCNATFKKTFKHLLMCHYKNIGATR
It is filed as functional, cell-based.

In the next experiment the target is T4, Progesterone receptor (Homo sapiens, UniProt P06401).
T4 sequence (P06401 whole entry): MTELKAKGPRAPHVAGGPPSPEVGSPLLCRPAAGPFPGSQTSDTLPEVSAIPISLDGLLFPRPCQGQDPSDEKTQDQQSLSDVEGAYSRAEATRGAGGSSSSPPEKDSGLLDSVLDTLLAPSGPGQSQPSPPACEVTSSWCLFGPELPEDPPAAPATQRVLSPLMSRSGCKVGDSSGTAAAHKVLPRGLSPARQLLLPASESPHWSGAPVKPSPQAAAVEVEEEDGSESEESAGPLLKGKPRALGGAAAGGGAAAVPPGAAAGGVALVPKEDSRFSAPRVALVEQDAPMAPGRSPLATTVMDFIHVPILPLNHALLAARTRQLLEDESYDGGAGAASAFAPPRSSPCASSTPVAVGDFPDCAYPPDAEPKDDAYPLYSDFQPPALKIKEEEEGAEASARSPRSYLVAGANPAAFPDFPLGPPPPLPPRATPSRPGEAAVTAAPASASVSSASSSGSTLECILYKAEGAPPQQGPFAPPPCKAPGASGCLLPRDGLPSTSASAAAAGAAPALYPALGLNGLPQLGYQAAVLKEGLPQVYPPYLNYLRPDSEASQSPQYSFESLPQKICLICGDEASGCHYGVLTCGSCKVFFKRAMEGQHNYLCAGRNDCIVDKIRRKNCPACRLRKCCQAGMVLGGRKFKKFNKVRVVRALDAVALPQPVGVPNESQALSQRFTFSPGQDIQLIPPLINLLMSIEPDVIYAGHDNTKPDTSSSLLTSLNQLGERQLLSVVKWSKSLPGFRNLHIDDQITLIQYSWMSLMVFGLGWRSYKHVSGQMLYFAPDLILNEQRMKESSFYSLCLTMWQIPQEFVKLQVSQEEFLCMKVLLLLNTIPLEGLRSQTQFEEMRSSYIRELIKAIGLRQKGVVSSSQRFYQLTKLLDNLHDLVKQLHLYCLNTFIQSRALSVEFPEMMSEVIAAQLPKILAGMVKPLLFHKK
It is filed as functional.

For experiment [4], the target named is T5, Alpha-1A adrenergic receptor (Homo sapiens, UniProt P35348).
T5 sequence (P35348 whole entry): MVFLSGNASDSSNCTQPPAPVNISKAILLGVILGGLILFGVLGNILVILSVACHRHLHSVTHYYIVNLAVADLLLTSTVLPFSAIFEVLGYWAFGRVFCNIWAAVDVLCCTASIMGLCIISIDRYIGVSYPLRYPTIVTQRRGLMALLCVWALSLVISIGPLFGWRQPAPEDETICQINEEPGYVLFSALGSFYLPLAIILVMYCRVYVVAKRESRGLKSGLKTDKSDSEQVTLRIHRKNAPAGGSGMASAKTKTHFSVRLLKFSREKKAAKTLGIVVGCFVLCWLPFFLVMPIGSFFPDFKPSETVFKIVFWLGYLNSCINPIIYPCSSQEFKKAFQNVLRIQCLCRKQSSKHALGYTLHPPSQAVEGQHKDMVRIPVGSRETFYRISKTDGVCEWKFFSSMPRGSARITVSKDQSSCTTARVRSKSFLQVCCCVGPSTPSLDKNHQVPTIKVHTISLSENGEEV
It is filed as functional, cell-based.

Each structure is given as a SMILES string.
Also: assay procedure not described here.

Sequence of Sodium-dependent dopamine transporter (Q01959 whole entry): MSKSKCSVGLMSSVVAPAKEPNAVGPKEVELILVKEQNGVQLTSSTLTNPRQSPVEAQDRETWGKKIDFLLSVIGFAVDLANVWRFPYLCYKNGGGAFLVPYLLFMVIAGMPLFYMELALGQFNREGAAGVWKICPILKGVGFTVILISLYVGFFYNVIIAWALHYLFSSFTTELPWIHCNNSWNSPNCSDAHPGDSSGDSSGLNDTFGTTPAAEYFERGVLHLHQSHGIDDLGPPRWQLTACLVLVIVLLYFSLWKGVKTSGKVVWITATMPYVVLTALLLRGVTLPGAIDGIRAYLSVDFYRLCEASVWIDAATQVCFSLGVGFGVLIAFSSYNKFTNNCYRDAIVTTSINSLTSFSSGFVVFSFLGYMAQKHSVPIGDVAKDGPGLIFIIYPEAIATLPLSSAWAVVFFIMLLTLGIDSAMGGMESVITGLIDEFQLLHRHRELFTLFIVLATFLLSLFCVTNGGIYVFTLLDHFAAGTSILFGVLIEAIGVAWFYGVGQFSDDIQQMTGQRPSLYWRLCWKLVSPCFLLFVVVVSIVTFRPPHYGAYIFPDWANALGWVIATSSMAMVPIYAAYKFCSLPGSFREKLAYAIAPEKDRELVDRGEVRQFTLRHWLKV

As for `COc1ccc(/C=C/C(=O)Nc2ccccc2C(=O)O)cc1OC`, the AC50 (in experiment [1]; in experiment [2]; on B2 bradykinin receptor; in experiment [3]; at Progesterone receptor) was more than 30 µM each time.

`C=C[C@@]1(C)CC(=O)[C@]2(O)[C@@]3(C)[C@@H](O)CCC(C)(C)[C@@H]3[C@H](OC(=O)CCN(C)C)[C@H](OC(C)=O)[C@@]2(C)O1`: the AC50 (in experiment [1]; in experiment [2]; on B2 bradykinin receptor; in experiment [3]; at Progesterone receptor) was more than 30 µM in each case.

For `NS(=O)(=O)c1cc2c(cc1C(F)(F)F)NC(Cc1ccccc1)NS2(=O)=O` (stereo not drawn) [BENDROFLUMETHIAZIDE], the half-maximal activity concentration (AC50) in experiment [1] was more than 10 µM; in experiment [2], 3.2 µM; on B2 bradykinin receptor it was more than 10 µM; in experiment [3] it was more than 10 µM; at Progesterone receptor, more than 10 µM.

As to `CCCCCCNC(=O)n1cc(F)c(=O)[nH]c1=O` [CARMOFUR], the AC50 (in experiment [1]; in experiment [2]; at B2 bradykinin receptor; in experiment [3]; at Progesterone receptor) was more than 30 µM throughout.

As to `CO[C@@]1(NC(=O)Cc2cccs2)C(=O)N2C(C(=O)O)=C(COC(N)=O)CS[C@@H]21` [CEFOXITIN], the concentration at half-maximal activity (AC50) (in experiment [1]; in experiment [2]; on B2 bradykinin receptor; in experiment [3]; on Progesterone receptor) was more than 30 µM throughout.

On to `COCCOC(=O)C1=C(C)NC(C)=C(C(=O)OC/C=C/c2ccccc2)C1c1cccc([N+](=O)[O-])c1` (stereo not drawn) [CILNIDIPINE], for which the AC50 (in experiment [1]; in experiment [2]; on B2 bradykinin receptor; in experiment [3]; at Progesterone receptor) was more than 30 µM in each case.

For the compound `COc1cccc2c1C(=O)c1c(O)c3c(c(O)c1C2=O)C[C@@](O)(C(C)=O)C[C@@H]3O[C@H]1C[C@H](N)[C@H](O)[C@H](C)O1` [DAUNORUBICIN], the figures for the AC50 (in experiment [2]; at B2 bradykinin receptor; on Progesterone receptor) were 17.7 µM, more than 10 µM and more than 3 µM, respectively.

As for `C[C@@H]1C[C@H]2[C@@H]3C[C@H](F)C4=CC(=O)C=C[C@]4(C)[C@@]3(F)[C@@H](O)C[C@]2(C)[C@H]1C(=O)CO` [DIFLUCORTOLONE], the concentration at half-maximal activity (AC50) in experiment [2] is more than 30 µM; at Progesterone receptor, more than 0.03 µM.

As for `COC(=O)N[C@@H](C)CNc1nccc(-c2cn(C(C)C)nc2-c2cc(Cl)cc(NS(C)(=O)=O)c2F)n1` [ENCORAFENIB], the half-maximal activity concentration (AC50) (in experiment [1]; in experiment [2]; on B2 bradykinin receptor; in experiment [3]; at Progesterone receptor) was more than 30 µM throughout.

With `CC1(C)C(/C=C/C=C/C=C/C=C2\N(CCCCS(=O)(=O)O)c3ccc4ccccc4c3C2(C)C)=[N+](CCCCS(=O)(=O)[O-])c2ccc3ccccc3c21` [INDOCYANINE GREEN ACID FORM], the AC50 in experiment [1] is more than 30 µM; at B2 bradykinin receptor it was 26 µM; at Progesterone receptor it was 3.4 µM.

As for `CCOC(=O)Nc1ccc2c(c1)N(C(=O)CCN1CCOCC1)c1ccccc1S2` [MORICIZINE], the AC50 is 13 µM in experiment [1]; more than 30 µM in experiment [2]; more than 30 µM at B2 bradykinin receptor; more than 30 µM in experiment [3]; more than 30 µM on Progesterone receptor.

For the compound `CC(=O)O[C@H]1C[C@@H]2CC[C@@H]3[C@H](CC[C@@]4(C)[C@H]3C[C@H]([N+]3(C)CCCCC3)[C@@H]4OC(C)=O)[C@@]2(C)C[C@@H]1[N+]1(C)CCCCC1` [PANCURONIUM], the AC50 (in experiment [1]; in experiment [2]; at B2 bradykinin receptor; in experiment [3]; at Progesterone receptor) was more than 10 µM throughout.

In the case of `CCn1cc(C(=O)O)c(=O)c2cc(F)c(N3CCN(C)CC3)cc21` [PEFLOXACIN], the concentration at half-maximal activity (AC50) (in experiment [1]; in experiment [2]; at B2 bradykinin receptor; in experiment [3]; on Progesterone receptor) was more than 30 µM throughout.

As for `CC1(C)C(C=C(Cl)Cl)C1C(=O)OCc1cccc(Oc2ccccc2)c1` (stereo not drawn) [PERMETHRIN], the AC50 was more than 10 µM in experiment [1]; more than 10 µM in experiment [2]; more than 10 µM on B2 bradykinin receptor; more than 10 µM in experiment [3]; more than 30 µM at Progesterone receptor.

Turning to `CC[N+]1(C)CCCC(OC(=O)C(O)(c2ccccc2)c2ccccc2)C1` (stereo not drawn) [PIPENZOLATE], the AC50 (in experiment [1]; in experiment [2]; on B2 bradykinin receptor; in experiment [3]; on Progesterone receptor) was more than 30 µM in each case.

Take `CC(=O)c1ccc2c(c1)N(CCCN1CCC(CCO)CC1)c1ccccc1S2` [PIPERACETAZINE]: the AC50 in experiment [4] was 0.14 µM; in experiment [1], more than 30 µM; in experiment [2] it was 7.6 µM; on B2 bradykinin receptor it was more than 30 µM; in experiment [3] it was more than 30 µM.

On to `CC(C)CC(N(C)C)C1(c2ccc(Cl)cc2)CCC1` (stereo not drawn) [SIBUTRAMINE], for which the AC50 in experiment [4] was more than 30 µM; in experiment [1], more than 30 µM; in experiment [2] it was 0.75 µM; on B2 bradykinin receptor it was more than 30 µM; in experiment [3] it was more than 30 µM.

On to `CN1c2ccccc2C(NCCCCCCC(=O)O)c2ccc(Cl)cc2S1(=O)=O` (stereo not drawn) [TIANEPTINE], for which the AC50 (in experiment [1]; in experiment [2]; at B2 bradykinin receptor; in experiment [3]; at Progesterone receptor) was more than 30 µM each time.

As to `CN1[C@@H]2CC[C@H]1C[C@@H](OC(=O)c1c[nH]c3ccccc13)C2` [TROPISETRON], the AC50 (in experiment [4]; in experiment [1]; in experiment [2]; on B2 bradykinin receptor; in experiment [3]) was more than 30 µM in each case.

As to `N#C[C@@H]1CCCN1C(=O)CNC12CC3CC(CC(O)(C3)C1)C2` [VILDAGLIPTIN], the AC50 (in experiment [4]; in experiment [1]; in experiment [2]; at B2 bradykinin receptor; in experiment [3]) was more than 30 µM each time.
